The values that follow come from patent publication US20070112043A1, “Acylated and non-acylated imidazo[2,1-b]-1,3,4,-thiadiazole-2-sulfonamides, and uses thereof” (priority 2003, published 2007).

The subject of series [1] is motor neurons found in layer V of the cortex. To be noted: drug concentration 1 μM; malonate; P1 rat motor cortex slices; cited from earlier work.
Series [2] relates to 15N neuroblastoma cells. Kind of series: Alamar blue viability assay, 15N neuroblastoma. The format is cell-based. The note with it: cellular viability after 48 hours; compound dissolved in DMSO. On the procedure: In order to investigate the anti-cancer potential of compounds represented by formula I-a, 15N neuroblastoma cells lines were treated with compound and assayed for cellular viability after 48 hours. The cellular viability of 15N neuroblastomas treated with compounds 1, 5, 6, 11, and 13 (dissolved in DMSO) are summarized in Table 5 (see Compound 152).
Compounds were tested for anti-cancer properties using the Alamar blue viability assay. Daoy human medulloblastoma cells of 15N neuroblastoma cells were plated at a density of 5000 cells per well of a 96 well plate and cultured in RPMI media supplemented with antibiotics and 5% fetal bovine serum. Cells in culture were incubated with compound for 48 hours after which time Alamar blue was added to the culture media. After 4 hours media was transferred to opaque white plates and fluorescence of transformed alamar blue was measured at excitation 535/emission 595).
For orientation: Alamar Blue is a resazurin reagent that responds to reducing activity.

Series [3] relates to SCG neurons. To be noted: Taxol induced cell death; read-out: Taxol SCG IC50; cited from earlier work.
In series [4] the test system is Du145 (prostate). Kind of series: Clonogenic assay Du145. To be noted: compound 24 hours, colonies counted after 7-10 days, read-out: ED50 (the source's name). Type of series: cell-based. The method, then:
(§1) In this paradigm, Du145 prostate, HCT116 colon, 15N Neuroblastoma, IMR32 Neuroblastoma, Daoy Medulloblastoma, and MDAMB231 breast cells are individually plated and allowed to proliferate for 48 hours. Compound is added to the culture and left on for 24 hours, at which time both compound and dead cells are washed off the plate. Fresh media is added and the cells are allowed to grow for an additional 7-10 days. The remaining healthy cells reproduce and formed localized colonies. These colonies are counted and EC50 values are determined relative to non-treated controls.
(§2) Du145 prostate, HCT116 colon, 15N Neuroblastoma, IMR32 Neuroblastoma, Daoy Medulloblastoma, and MDAMB231 breast cells were plated in 6 well plates and allowed to grow for 5 days._Cells were exposed to compound for 24 hours, the culture media was removed and replaced with fresh media. The cells were kept in cultured for 7-10 days after which colonies were counted and EC50 values were determined relative to non-treated controls.

Series [5] can be described thus: Microsomal stability. The format is in vitro ADME. To be noted: 1 hr.
In series [6] the test system is IMR32 (neuroblastoma). The series can be described thus: Clonogenic assay IMR32. The format is cell-based. The note with it: compound 24 hours, colonies counted after 7-10 days, read-out: ED50 (the source's name). The method, then: as §1, §2

The IC50 is the concentration needed to halve the response being measured.

With `NS(=O)(=O)c1nn2cc(-c3ccc(Oc4ccc(Cl)cc4)cc3)nc2s1` [Compound 13], the “protection of SMI-32 labeled motor neurons” value in series [1] is more than 80%. For the same molecule, the half-inhibitory concentration (IC50) is 10 µM in series [2] and 3 µM in series [3]. Besides, the EC50 in series [4] is 8 µM; in series [6] it was 0.75 µM. Also, the “Microsomal Stability (1 hr)” value in series [5] is 85%.
